From PubChem BioAssay (NCI)
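Test compounds were applied to cells in 96-well plates for 48 hours at 5 doses. TGI is the concentration that stops growth completely.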

Legend:
Assay in all cases: DTP human tumour cell line panel, 48 h
ACHN renal = test system: ACHN renal
RXF 393 renal = test system: RXF 393 renal
CAKI-1 renal = test system: CAKI-1 renal
M14 melanoma = test system: M14 melanoma
SK-MEL-2 melanoma = test system: SK-MEL-2 melanoma
SNB-75 CNS = test system: SNB-75 CNS
SNB-78 CNS = test system: SNB-78 CNS
HCC-2998 colon = test system: HCC-2998 colon
OVCAR-4 ovarian = test system: OVCAR-4 ovarian
RPMI-8226 leukemia = test system: RPMI-8226 leukemia
HL-60(TB) leukemia = test system: HL-60(TB) leukemia
786-0 renal = test system: 786-0 renal
MOLT-4 leukemia = test system: MOLT-4 leukemia
MALME-3M melanoma = test system: MALME-3M melanoma
CCRF-CEM leukemia = test system: CCRF-CEM leukemia
SN12C renal = test system: SN12C renal
SF-539 CNS = test system: SF-539 CNS
HT29 colon = test system: HT29 colon
M19-MEL melanoma = test system: M19-MEL melanoma
K-562 leukemia = test system: K-562 leukemia
DMS 273 small cell lung = test system: DMS 273 small cell lung
SK-MEL-5 melanoma = test system: SK-MEL-5 melanoma
COLO 205 colon = test system: COLO 205 colon
HCT-116 colon = test system: HCT-116 colon
SK-MEL-28 melanoma = test system: SK-MEL-28 melanoma
A498 renal = test system: A498 renal
SNB-19 CNS = test system: SNB-19 CNS
OVCAR-5 ovarian = test system: OVCAR-5 ovarian
SF-295 CNS = test system: SF-295 CNS
HOP-18 NSCLC = test system: HOP-18 NSCLC
NCI-H23 lung = test system: NCI-H23 lung
SW-620 colon = test system: SW-620 colon
OVCAR-3 ovarian = test system: OVCAR-3 ovarian
A549 NSCLC = test system: A549 NSCLC
DMS 114 small cell lung = test system: DMS 114 small cell lung
DLD-1 colon = test system: DLD-1 colon
HOP-62 NSCLC = test system: HOP-62 NSCLC
UO-31 renal = test system: UO-31 renal
UACC-62 melanoma = test system: UACC-62 melanoma
HCT-15 colon = test system: HCT-15 colon
KM12 colon = test system: KM12 colon
HOP-92 NSCLC = test system: HOP-92 NSCLC
OVCAR-8 ovarian = test system: OVCAR-8 ovarian
UACC-257 melanoma = test system: UACC-257 melanoma
LOX IMVI melanoma = test system: LOX IMVI melanoma
SF-268 CNS = test system: SF-268 CNS
IGROV1 ovarian = test system: IGROV1 ovarian
TK-10 renal = test system: TK-10 renal
U251 CNS = test system: U251 CNS
EKVX NSCLC = test system: EKVX NSCLC
SK-OV-3 ovarian = test system: SK-OV-3 ovarian
NCI-H226 lung = test system: NCI-H226 lung
NCI-H460 lung = test system: NCI-H460 lung
RXF-631 renal = test system: RXF-631 renal
MDA-N = test system: MDA-N
PC-3 prostate = test system: PC-3 prostate
SR leukemia = test system: SR leukemia
BT-549 breast = test system: BT-549 breast
T-47D breast = test system: T-47D breast
KM20L2 colon = test system: KM20L2 colon
DU-145 prostate = test system: DU-145 prostate
MDA-MB-435 = test system: MDA-MB-435
HS 578T breast = test system: HS 578T breast
LXFL 529 NSCLC = test system: LXFL 529 NSCLC
MDA-MB-231 breast = test system: MDA-MB-231 breast
MCF7 breast = test system: MCF7 breast
NCI-H522 lung = test system: NCI-H522 lung

O=C1CCC(O)=C1N=Nc1cc(Cl)cc(Cl)c1
TGI (ACHN renal): > 100 µM | TGI (RXF 393 renal): > 100 µM | TGI (CAKI-1 renal): > 100 µM | TGI (M14 melanoma): > 100 µM | TGI (SK-MEL-2 melanoma): > 100 µM | TGI (SNB-75 CNS): > 100 µM | TGI (SNB-78 CNS): > 100 µM | TGI (HCC-2998 colon): > 100 µM | TGI (OVCAR-4 ovarian): > 100 µM | TGI (RPMI-8226 leukemia): > 100 µM | TGI (HL-60(TB) leukemia): > 100 µM | TGI (786-0 renal): > 100 µM | TGI (MOLT-4 leukemia): > 100 µM | TGI (MALME-3M melanoma): > 100 µM | TGI (CCRF-CEM leukemia): > 100 µM | TGI (SN12C renal): > 100 µM | TGI (SF-539 CNS): > 100 µM | TGI (HT29 colon): > 100 µM | TGI (M19-MEL melanoma): > 100 µM | TGI (K-562 leukemia): > 100 µM | TGI (DMS 273 small cell lung): > 100 µM | TGI (SK-MEL-5 melanoma): > 100 µM | TGI (COLO 205 colon): > 100 µM | TGI (HCT-116 colon): > 100 µM | TGI (SK-MEL-28 melanoma): > 100 µM | TGI (A498 renal): 91 µM | TGI (SNB-19 CNS): > 100 µM | TGI (OVCAR-5 ovarian): > 100 µM | TGI (SF-295 CNS): > 100 µM | TGI (HOP-18 NSCLC): > 100 µM | TGI (NCI-H23 lung): > 100 µM | TGI (SW-620 colon): > 100 µM | TGI (OVCAR-3 ovarian): 98.2 µM | TGI (A549 NSCLC): > 100 µM | TGI (DMS 114 small cell lung): > 100 µM | TGI (DLD-1 colon): > 100 µM | TGI (HOP-62 NSCLC): > 100 µM | TGI (UO-31 renal): > 100 µM | TGI (UACC-62 melanoma): > 100 µM | TGI (HCT-15 colon): > 100 µM | TGI (KM12 colon): > 100 µM | TGI (HOP-92 NSCLC): > 100 µM | TGI (OVCAR-8 ovarian): > 100 µM | TGI (UACC-257 melanoma): > 100 µM | TGI (LOX IMVI melanoma): > 100 µM | TGI (SF-268 CNS): > 100 µM | TGI (IGROV1 ovarian): > 100 µM | TGI (TK-10 renal): > 100 µM | TGI (U251 CNS): > 100 µM | TGI (EKVX NSCLC): > 100 µM | TGI (SK-OV-3 ovarian): > 100 µM | TGI (NCI-H226 lung): > 100 µM | TGI (NCI-H460 lung): > 100 µM | TGI (RXF-631 renal): > 100 µM

O=C1C=CC(=O)c2ccc(=O)ccc21
TGI (ACHN renal): 23.5 µM | TGI (RXF 393 renal): 16.3 µM | TGI (CAKI-1 renal): 21 µM | TGI (M14 melanoma): 31.1 µM | TGI (SK-MEL-2 melanoma): 34.8 µM | TGI (MDA-N): 28.8 µM | TGI (SNB-75 CNS): 39 µM | TGI (PC-3 prostate): 33 µM | TGI (SNB-78 CNS): 64.5 µM | TGI (SR leukemia): 6.3 µM | TGI (HCC-2998 colon): 31.3 µM | TGI (OVCAR-4 ovarian): 27.8 µM | TGI (RPMI-8226 leukemia): > 29.7 µM | TGI (BT-549 breast): 31.9 µM | TGI (T-47D breast): 5.55 µM | TGI (HL-60(TB) leukemia): 15.8 µM | TGI (786-0 renal): 32.8 µM | TGI (MOLT-4 leukemia): 5.69 µM | TGI (MALME-3M melanoma): 39.6 µM | TGI (SN12C renal): 32.2 µM | TGI (SF-539 CNS): 43.5 µM | TGI (HT29 colon): 50.5 µM | TGI (M19-MEL melanoma): 25.5 µM | TGI (K-562 leukemia): 14.6 µM | TGI (DMS 273 small cell lung): 58.1 µM | TGI (KM20L2 colon): 46.2 µM | TGI (SK-MEL-5 melanoma): 38.3 µM | TGI (DU-145 prostate): 59.9 µM | TGI (COLO 205 colon): 18.9 µM | TGI (HCT-116 colon): 31.6 µM | TGI (SK-MEL-28 melanoma): 42.6 µM | TGI (A498 renal): 41.6 µM | TGI (SNB-19 CNS): 27.1 µM | TGI (OVCAR-5 ovarian): 35 µM | TGI (SF-295 CNS): 37.1 µM | TGI (HOP-18 NSCLC): 39.1 µM | TGI (NCI-H23 lung): 45.5 µM | TGI (SW-620 colon): 14.4 µM | TGI (OVCAR-3 ovarian): 26.7 µM | TGI (MDA-MB-435): 46 µM | TGI (A549 NSCLC): 64.2 µM | TGI (DMS 114 small cell lung): 33.9 µM | TGI (DLD-1 colon): 15.6 µM | TGI (HOP-62 NSCLC): 51.5 µM | TGI (UO-31 renal): 22.1 µM | TGI (HS 578T breast): > 100 µM | TGI (UACC-62 melanoma): 29.9 µM | TGI (HCT-15 colon): 35.8 µM | TGI (KM12 colon): 37.4 µM | TGI (HOP-92 NSCLC): 3.72 µM | TGI (OVCAR-8 ovarian): 64.5 µM | TGI (LXFL 529 NSCLC): 11.1 µM | TGI (MDA-MB-231 breast): 45.5 µM | TGI (UACC-257 melanoma): 30.4 µM | TGI (LOX IMVI melanoma): > 54.1 µM | TGI (MCF7 breast): > 100 µM | TGI (SF-268 CNS): 32.9 µM | TGI (IGROV1 ovarian): 33.6 µM | TGI (TK-10 renal): 33.9 µM | TGI (U251 CNS): 30.1 µM | TGI (EKVX NSCLC): 50.7 µM | TGI (NCI-H522 lung): 5.82 µM | TGI (SK-OV-3 ovarian): 48.8 µM | TGI (NCI-H226 lung): 58.9 µM | TGI (NCI-H460 lung): 43.2 µM | TGI (RXF-631 renal): 42.3 µM
